Broadly, the melting point is the temperature of the solid-liquid transition.

SMILES strings stand for the structures.

Consider 1 compound from patent US20090111795A1, “Multimers of Heterocyclic Compounds and Their Use” (priority 2005, published 2009).

In turn, `CCOC(=O)C1=C(C)N(c2cccc(C(F)(F)F)c2)C(=O)N(CC(=O)NCC[N+](C)(C)CCNC(=O)CN2C(=O)N(c3cccc(C(F)(F)F)c3)C(C)=C(C(=O)OCC)[C@H]2c2ccc(C#N)cc2)[C@@H]1c1ccc(C#N)cc1.O=C([O-])CCC(=O)O` displayed a melting point of 138 to 143 °C.
